From article PMC9487510, “A Novel Oral GyrB/ParE Dual Binding Inhibitor Effective against Multidrug-Resistant Neisseria gonorrhoeae and Other High-Threat Pathogens” (Antimicrobial Agents and Chemotherapy, 2022)
Values after ≈ are worked out from the molar mass of the structure shown. Like-named read-outs stand apart in the source and are kept apart here.

Tested on: N. gonorrhoeae clinical isolates
Assay: MIC, agar dilution (CLSI)
Type: cell-based, Neisseria gonorrhoeae
Conditions: for MIC: read-out: MIC

MIC range (96 clinical isolates): 0.016 to 4 µg/mL
MIC (Neisseria gonorrhoeae, strain CDC1 (GCREF2012 016)): 0.125 µg/mL (≈ 0.276 µM)
MIC (Neisseria gonorrhoeae, strain CDC2 (GCREF2012 045)): 0.125 µg/mL (≈ 0.276 µM)
MIC (Neisseria gonorrhoeae, strain CDC3 (GCREF2013 013)): 0.125 µg/mL (≈ 0.276 µM)
MIC (Neisseria gonorrhoeae, strain CDC4 (GCREF2013 030)): 0.125 µg/mL (≈ 0.276 µM)
MIC (Neisseria gonorrhoeae, strain CDC5 (GCREF2012 001)): 0.125 µg/mL (≈ 0.276 µM)
MIC (Neisseria gonorrhoeae, strain CDC6 (GCREF2012 002)): 0.25 µg/mL (≈ 0.551 µM)
MIC (Neisseria gonorrhoeae, strain CDC8 (GCREF2012 004)): 0.125 µg/mL (≈ 0.276 µM)
MIC (Neisseria gonorrhoeae, strain CDC9 (GCREF2012 005)): 0.125 µg/mL (≈ 0.276 µM)
MIC (Neisseria gonorrhoeae, strain CDC10 (GCREF2012 006)): 0.125 µg/mL (≈ 0.276 µM)
MIC (Neisseria gonorrhoeae, strain CDC11 (GCREF2012 007)): 0.125 µg/mL (≈ 0.276 µM)
MIC (Neisseria gonorrhoeae, strain CDC12 (GCREF2012 008)): 0.25 µg/mL (≈ 0.551 µM)
MIC (Neisseria gonorrhoeae, strain CDC13 (GCREF2012 009)): 0.063 µg/mL (≈ 0.139 µM)
MIC (Neisseria gonorrhoeae, strain CDC14 (GCREF2012 010)): 0.25 µg/mL (≈ 0.551 µM)
MIC (Neisseria gonorrhoeae, strain CDC15 (GCREF2012 011)): 0.031 µg/mL (≈ 0.0684 µM)
MIC (Neisseria gonorrhoeae, strain CDC16 (GCREF2012 012)): 4 µg/mL (≈ 8.82 µM)
MIC (Neisseria gonorrhoeae, strain CDC18 (GCREF2012 014)): 0.063 µg/mL (≈ 0.139 µM)
MIC (Neisseria gonorrhoeae, strain CDC19 (GCREF2012 015)): 0.125 µg/mL (≈ 0.276 µM)
MIC (Neisseria gonorrhoeae, strain CDC20 (GCREF2012 017)): 0.125 µg/mL (≈ 0.276 µM)
MIC (Neisseria gonorrhoeae, strain CDC21 (GCREF2012 018)): 0.25 µg/mL (≈ 0.551 µM)
MIC (Neisseria gonorrhoeae, strain CDC22 (GCREF2012 019)): 0.031 µg/mL (≈ 0.0684 µM)
MIC (Neisseria gonorrhoeae, strain CDC23 (GCREF2012 020)): 0.125 µg/mL (≈ 0.276 µM)
MIC (Neisseria gonorrhoeae, strain CDC24 (GCREF2012 021)): 0.063 µg/mL (≈ 0.139 µM)
MIC (Neisseria gonorrhoeae, strain CDC25 (GCREF2012 022)): 0.25 µg/mL (≈ 0.551 µM)
MIC (Neisseria gonorrhoeae, strain CDC26 (GCREF2012 023)): 0.063 µg/mL (≈ 0.139 µM)
MIC (Neisseria gonorrhoeae, strain CDC27 (GCREF2012 024)): 0.063 µg/mL (≈ 0.139 µM)
MIC (Neisseria gonorrhoeae, strain CDC28 (GCREF2012 025)): 0.25 µg/mL (≈ 0.551 µM)
MIC (Neisseria gonorrhoeae, strain CDC29 (GCREF2012 026)): 0.125 µg/mL (≈ 0.276 µM)
MIC (Neisseria gonorrhoeae, strain CDC30 (GCREF2012 027)): 0.125 µg/mL (≈ 0.276 µM)
MIC (Neisseria gonorrhoeae, strain CDC31 (GCREF2012 028)): 0.25 µg/mL (≈ 0.551 µM)
MIC (Neisseria gonorrhoeae, strain CDC32 (GCREF2012 029)): 0.125 µg/mL (≈ 0.276 µM)
MIC (Neisseria gonorrhoeae, strain CDC33 (GCREF2012 030)): 0.5 µg/mL (≈ 1.1 µM)
MIC (Neisseria gonorrhoeae, strain CDC34 (GCREF2012 031)): 0.063 µg/mL (≈ 0.139 µM)
MIC (Neisseria gonorrhoeae, strain CDC35 (GCREF2012 032)): 0.25 µg/mL (≈ 0.551 µM)
MIC (Neisseria gonorrhoeae, strain CDC36 (GCREF2012 033)): 0.063 µg/mL (≈ 0.139 µM)
MIC (Neisseria gonorrhoeae, strain CDC37 (GCREF2012 034)): 0.125 µg/mL (≈ 0.276 µM)
MIC (Neisseria gonorrhoeae, strain CDC38 (GCREF2012 035)): 0.063 µg/mL (≈ 0.139 µM)
MIC (Neisseria gonorrhoeae, strain CDC39 (GCREF2012 036)): 0.25 µg/mL (≈ 0.551 µM)
MIC (Neisseria gonorrhoeae, strain CDC40 (GCREF2012 037)): 0.125 µg/mL (≈ 0.276 µM)
MIC (Neisseria gonorrhoeae, strain CDC41 (GCREF2012 038)): 0.25 µg/mL (≈ 0.551 µM)
MIC (Neisseria gonorrhoeae, strain CDC42 (GCREF2012 039)): 0.25 µg/mL (≈ 0.551 µM)
MIC (Neisseria gonorrhoeae, strain CDC43 (GCREF2012 040)): 0.25 µg/mL (≈ 0.551 µM)
MIC (Neisseria gonorrhoeae, strain CDC45 (GCREF2012 042)): 0.25 µg/mL (≈ 0.551 µM)
MIC (Neisseria gonorrhoeae, strain CDC46 (GCREF2012 043)): 0.125 µg/mL (≈ 0.276 µM)
MIC (Neisseria gonorrhoeae, strain CDC47 (GCREF2012 044)): 0.125 µg/mL (≈ 0.276 µM)
MIC (Neisseria gonorrhoeae, strain CDC48 (GCREF2012 046)): 0.125 µg/mL (≈ 0.276 µM)
MIC (Neisseria gonorrhoeae, strain CDC49 (GCREF2012 047)): 0.25 µg/mL (≈ 0.551 µM)
MIC (Neisseria gonorrhoeae, strain CDC50 (GCREF2012 048)): 0.25 µg/mL (≈ 0.551 µM)
MIC (Neisseria gonorrhoeae, strain CDC51 (GCREF2012 049)): 0.125 µg/mL (≈ 0.276 µM)
MIC (Neisseria gonorrhoeae, strain CDC52 (GCREF2012 050)): 0.25 µg/mL (≈ 0.551 µM)
MIC (Neisseria gonorrhoeae, strain CDC53 (GCREF2012 051)): 0.25 µg/mL (≈ 0.551 µM)
MIC (Neisseria gonorrhoeae, strain CDC54 (GCREF2012 052)): 0.25 µg/mL (≈ 0.551 µM)
MIC (Neisseria gonorrhoeae, strain CDC55 (GCREF2013 001)): 0.125 µg/mL (≈ 0.276 µM)
MIC (Neisseria gonorrhoeae, strain CDC56 (GCREF2013 002)): 0.25 µg/mL (≈ 0.551 µM)
MIC (Neisseria gonorrhoeae, strain CDC57 (GCREF2013 003)): 0.125 µg/mL (≈ 0.276 µM)
MIC (Neisseria gonorrhoeae, strain CDC58 (GCREF2013 004)): 0.25 µg/mL (≈ 0.551 µM)
MIC (Neisseria gonorrhoeae, strain CDC59 (GCREF2013 044)): 0.25 µg/mL (≈ 0.551 µM)
MIC (Neisseria gonorrhoeae, strain CDC60 (GCREF2013 005)): 0.125 µg/mL (≈ 0.276 µM)
MIC (Neisseria gonorrhoeae, strain CDC61 (GCREF2013 006)): 0.125 µg/mL (≈ 0.276 µM)
MIC (Neisseria gonorrhoeae, strain CDC62 (GCREF2013 007)): 0.25 µg/mL (≈ 0.551 µM)
MIC (Neisseria gonorrhoeae, strain CDC63 (GCREF2013 008)): 0.125 µg/mL (≈ 0.276 µM)
MIC (Neisseria gonorrhoeae, strain CDC64 (GCREF2013 009)): 0.125 µg/mL (≈ 0.276 µM)
MIC (Neisseria gonorrhoeae, strain CDC65 (GCREF2013 010)): 0.125 µg/mL (≈ 0.276 µM)
MIC (Neisseria gonorrhoeae, strain CDC66 (GCREF2013 011)): 0.125 µg/mL (≈ 0.276 µM)
MIC (Neisseria gonorrhoeae, strain CDC67 (GCREF2013 014)): 0.125 µg/mL (≈ 0.276 µM)
MIC (Neisseria gonorrhoeae, strain CDC68 (GCREF2013 016)): 0.063 µg/mL (≈ 0.139 µM)
MIC (Neisseria gonorrhoeae, strain CDC69 (GCREF2013 017)): 0.063 µg/mL (≈ 0.139 µM)
MIC (Neisseria gonorrhoeae, strain CDC70 (GCREF2013 018)): 0.125 µg/mL (≈ 0.276 µM)
MIC (Neisseria gonorrhoeae, strain CDC71 (GCREF2013 019)): 0.016 µg/mL (≈ 0.0353 µM)
MIC (Neisseria gonorrhoeae, strain CDC72 (GCREF2013 020)): 0.25 µg/mL (≈ 0.551 µM)
MIC (Neisseria gonorrhoeae, strain CDC73 (GCREF2013 021)): 0.125 µg/mL (≈ 0.276 µM)
MIC (Neisseria gonorrhoeae, strain CDC74 (GCREF2013 022)): 0.125 µg/mL (≈ 0.276 µM)
MIC (Neisseria gonorrhoeae, strain CDC75 (GCREF2013 023)): 0.125 µg/mL (≈ 0.276 µM)
MIC (Neisseria gonorrhoeae, strain CDC76 (GCREF2013 024)): 0.125 µg/mL (≈ 0.276 µM)
MIC (Neisseria gonorrhoeae, strain CDC77 (GCREF2013 025)): 0.125 µg/mL (≈ 0.276 µM)
MIC (Neisseria gonorrhoeae, strain CDC78 (GCREF2013 026)): 0.063 µg/mL (≈ 0.139 µM)
MIC (Neisseria gonorrhoeae, strain CDC79 (GCREF2013 027)): 0.125 µg/mL (≈ 0.276 µM)
MIC (Neisseria gonorrhoeae, strain CDC80 (GCREF2013 028)): 0.125 µg/mL (≈ 0.276 µM)
MIC (Neisseria gonorrhoeae, strain CDC81 (GCREF2013 029)): 0.25 µg/mL (≈ 0.551 µM)
MIC (Neisseria gonorrhoeae, strain CDC82 (GCREF2013 031)): 0.125 µg/mL (≈ 0.276 µM)
MIC (Neisseria gonorrhoeae, strain CDC83 (GCREF2013 032)): 0.125 µg/mL (≈ 0.276 µM)
MIC (Neisseria gonorrhoeae, strain CDC84 (GCREF2013 033)): 0.125 µg/mL (≈ 0.276 µM)
MIC (Neisseria gonorrhoeae, strain CDC86 (GCREF2013 035)): 0.125 µg/mL (≈ 0.276 µM)
MIC (Neisseria gonorrhoeae, strain CDC87 (GCREF2013 036)): 0.25 µg/mL (≈ 0.551 µM)
MIC (Neisseria gonorrhoeae, strain CDC88 (GCREF2013 037)): 0.125 µg/mL (≈ 0.276 µM)
MIC (Neisseria gonorrhoeae, strain CDC89 (GCREF2013 038)): 0.125 µg/mL (≈ 0.276 µM)
MIC (Neisseria gonorrhoeae, strain CDC90 (GCREF2013 039)): 0.125 µg/mL (≈ 0.276 µM)
MIC (Neisseria gonorrhoeae, strain CDC91 (GCREF2013 040)): 4 µg/mL (≈ 8.82 µM)
MIC (Neisseria gonorrhoeae, strain CDC92 (GCREF2013 041)): 0.125 µg/mL (≈ 0.276 µM)
MIC (Neisseria gonorrhoeae, strain CDC93 (GCREF2013 042)): 0.125 µg/mL (≈ 0.276 µM)
MIC (Neisseria gonorrhoeae, strain CDC94 (GCREF2013 043)): 0.125 µg/mL (≈ 0.276 µM)
MIC (Neisseria gonorrhoeae, strain CDC95 (GCREF2013 045)): 0.25 µg/mL (≈ 0.551 µM)
MIC (Neisseria gonorrhoeae, strain CDC96 (GCREF2013 046)): 0.125 µg/mL (≈ 0.276 µM)
MIC (Neisseria gonorrhoeae, strain CDC97 (GCREF2013 047)): 0.125 µg/mL (≈ 0.276 µM)
MIC (Neisseria gonorrhoeae, strain CDC98 (GCREF2013 048)): 0.125 µg/mL (≈ 0.276 µM)
MIC (Neisseria gonorrhoeae, strain CDC99 (GCREF2013 012)): 0.125 µg/mL (≈ 0.276 µM)
MIC (Neisseria gonorrhoeae, strain CDC100 (GCREF2013 015)): 0.25 µg/mL (≈ 0.551 µM)
MIC50 (Neisseria gonorrhoeae, 96 clinical isolates, read-out: MIC50): 0.125 µg/mL (≈ 0.276 µM)
MIC90 (Neisseria gonorrhoeae, 96 clinical isolates, read-out: MIC90): 0.25 µg/mL (≈ 0.551 µM)
Compound: C=CC1=C(C(=O)O)N2C(=O)[C@@H](NC(=O)/C(=N\OCC(=O)O)c3csc(N)n3)[C@H]2SC1 [Cfx, cefixime]
